For four compounds, Glucose conversion rate, Ethanol yield and MIC value results are on record in patent publication US20250034600A1, “ONIUM SALT COMPOSITIONS, METHODS FOR PRODUCING CELLULOSE HYDROLYSATES, ALCOHOLS AND/OR ORGANIC ACIDS IN THE PRESENCE OF ONIUM SALT COMPOSITIONS” (KOEI CHEMICAL COMPANY, LIMITED, priority 2023, published 2025).

Each structure is given as a SMILES string.

Test [1] relates to cellulase (produced by Sigma). As to the kind of experiment: Enzymatic hydrolysis of microcrystalline cellulose with cellulase in the presence of the onium salt. Type of test: biochemical. Conditions: 1.00 g microcrystalline cellulose in 5.00 g onium salt; 95.0 g water, 10 μL cellulase, 4 days; calculated from cellulose residue. As for the experimental part:
5.00 g of 1,3-bis(3-methoxypropyl)imidazolium acetate was placed in a flask and maintained at 50° C. 1.00 g of microcrystalline cellulose (Avicel (registered trademark) PH-101) was added at 50° C., and the resulting mixture was stirred until visual observation confirmed that microcrystalline cellulose had been completely dissolved. 95.0 g of ultrapure water and 10 μL of cellulase (produced by Sigma) were added, and the resulting mixture was stirred for 4 days. The remaining cellulose residue was recovered by filtration, and the glucose conversion rate was calculated.
The same procedure as in Example 1 was repeated except that 1-ethyl-3-methylimidazolium acetate was used in place of the 1,3-bis(3-methoxypropyl)imidazolium acetate used in Example 1.

Test [2] concerns dry yeast. As to the kind of experiment: Fermentation of glucose with dry yeast to ethanol in the presence of the onium salt. Type of test: cell-based. To be noted: 0.20 g onium salt, 0.5 g glucose, 9.6 g water, 0.05 g dry yeast, stand overnight; ethanol quantified by GC. As to the method: (§1) 0.20 g of 1,3-bis(3-methoxypropyl)imidazolium acetate, 0.5 g of glucose (β-D-glucose (including α-D-glucose), produced by Tokyo Chemical Industry Co., Ltd.), and 9.6 g of ultrapure water were placed in a sample tube. The resulting mixture was stirred until the glucose was completely dissolved. After the glucose had been completely dissolved, 0.05 g of dry yeast was added and the resulting mixture was allowed to stand overnight. After filtering off the insoluble matter, the amount of ethanol produced was quantified by GC (gas chromatography) to calculate the ethanol yield.
as §1, with “1,3-bis(methoxyethoxypropyl)imidazolium acetate ([(MeOEtOPr)2Im][AcO]),” for “1,3-bis(3-methoxypropyl)imidazolium acetate,”, “added. The” for “added and the”
0.20 g of 1,3-bis(ethoxypropyl)imidazolium acetate ([(EtOPr)2Im][AcO]), 0.5 g of glucose (β-D-glucose (including α-D-glucose), produced by Tokyo Chemical Industry Co., Ltd.), and 9.6 g of ultrapure water were placed in a sample tube. The resulting mixture was stirred until the glucose was completely dissolved. After the glucose had been completely dissolved, 0.05 g of dry yeast was added and the resulting mixture was allowed to stand overnight. After filtering off the insoluble matter, the amount of ethanol produced was quantified by GC (gas chromatography) to calculate the ethanol yield.
The same procedure as in Example 2 was repeated except that 1-ethyl-3-methylimidazolium acetate was used in place of the 1,3-bis(3-methoxypropyl)imidazolium acetate used in Example 2.

Test [3] concerns yeast (Saccharomyces cerevisiae). The test can be described thus: Antibacterial test (minimum inhibitory concentration, MIC value) against yeast. Type of test: cell-based. Conditions: lower MIC = greater inhibition. As for the experimental part: An antibacterial test (measurement of minimum inhibitory concentration (MIC value)) of 1,3-bis(3-methoxypropyl)imidazolium acetate and 1-ethyl-3-methylimidazolium acetate against yeast (Saccharomyces cerevisiae) was carried out. A lower MIC value indicates a greater degree of inhibition of enzymatic and/or microbial activity.

Test [4] has as its system cellulase (produced by Sigma) and dry yeast. The test can be described thus: Cellulose dissolution, cellulase hydrolysis and dry yeast fermentation to ethanol in one pot in the presence of the onium salt. Type of test: cell-based. To be noted: 2.00 g onium salt, 0.50 g microcrystalline cellulose, 80° C. 3 h; 38.0 g water, 20 μL cellulase, 50° C. 10 h; 0.50 g dry yeast, 30° C. 7 h; GC. As for the experimental part: 2.00 g of 1,3-bis(3-methoxypropyl)imidazolium acetate was placed in a sample tube, and 0.50 g of microcrystalline cellulose (Avicel (registered trademark) PH-101) was added. The resulting mixture was heated and stirred at 80° C. for 3 hours. After confirming by visual observation that the microcrystalline cellulose had been […], 38.0 g of ultrapure water and 20 μL of cellulase (produced by Sigma) were added. The resulting mixture was stirred at 50° C. for 10 hours. 0.50 g of dry yeast was then added and the resulting mixture was gently stirred at 30° C. After 7 hours, the insoluble matter was filtered off, and the amount of ethanol produced was quantified by GC (gas chromatography) to calculate the ethanol yield.
The same procedure as in Example 5 was repeated, except that 1-ethyl-3-methylimidazolium acetate was used in place of the 1,3-bis(3-methoxypropyl)imidazolium acetate used in Example 5.
The same procedure as in Example 5 was repeated, except that the 1,3-bis(3-methoxypropyl)imidazolium acetate used in Example 5 was not added and 2.00 g of ultrapure water was used in place of 2.00 g of 1,3-bis(3-methoxypropyl)imidazolium acetate.

For `CC(=O)[O-].CCn1cc[n+](C)c1` [1-Ethyl-3-methylimidazolium acetate, 1-ethyl-3-methylimidazolium acetate, reference compound], in test [1], the Glucose conversion rate is 8%. Besides, the values for the Ethanol yield in test [2] and in test [4] were 14.2% and 16.0, respectively. The same compound returned an MIC value in test [3] of 0.5%.

For the compound `CC(=O)[O-].CCOCCCn1cc[n+](CCCOCC)c1` [[EtOPr]2Im] [AcO], 1,3-bis(ethoxypropyl)imidazolium acetate], the Ethanol yield in test [2] is given as 46.38%.

For `CC(=O)[O-].COCCOCCCn1cc[n+](CCCOCCOC)c1` [[MeOEtOPr]2Im] [AcO], 1,3-bis(methoxyethoxypropyl)imidazolium acetate], in test [2], the Ethanol yield is on record as 53.77%.

As for `CC(=O)[O-].COCCCn1cc[n+](CCCOC)c1` [[MeOPr]2Im] [AcO], 1,3-bis(3-methoxypropyl)imidazolium acetate], the Glucose conversion rate in test [1] was 73%. In addition, the Ethanol yield in test [2] is 66.64%; in test [4], 51.5. Moreover, in test [3], the MIC value is 5%.
